In series [1] the target is T1, TFPI-1 (Homo sapiens, UniProt P10646).
T1 sequence (P10646 29-304): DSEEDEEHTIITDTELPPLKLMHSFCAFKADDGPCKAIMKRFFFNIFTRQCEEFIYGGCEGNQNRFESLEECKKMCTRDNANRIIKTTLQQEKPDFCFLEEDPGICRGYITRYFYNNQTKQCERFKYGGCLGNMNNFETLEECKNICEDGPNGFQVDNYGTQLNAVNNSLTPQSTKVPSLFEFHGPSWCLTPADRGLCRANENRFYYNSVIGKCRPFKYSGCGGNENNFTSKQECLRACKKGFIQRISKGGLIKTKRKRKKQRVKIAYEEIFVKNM
In words: FXa inhibition assay. The class given is biochemical. The note with it: OD readings after 115 minutes.

For series [2] the following is noted: in vivo, iv, 10 mg/kg.
Experimental: The peptides were administered intravenously to C57Bl6 mice at a dose of 10 mg/kg. Three biological samples were analyzed for the presence of peptide at each time point.
In series [3] the test system is TFPI-dependent thrombin generation in FVIII deficient plasma. As to the kind of experiment: thrombin generation (calibrated automated thrombography) in FVIII deficient plasma. Particulars: plasma-based assay, FIGS. 11A and 11B.

The term EC50 denotes the concentration at which the effect is half-maximal. High values mean weaker potency, low ones greater potency.

The structures appear in SMILES notation. Residues, ends and D or L forms follow the SMILES beside them.

Regarding `CC(=O)N[C@@H](Cc1ccccc1)C(=O)N[C@@H](CCC(N)=O)C(=O)N[C@@H](CO)C(=O)N[C@@H](CCCCN)C(=O)N[C@@H](CC(N)=O)C(=O)N[C@@H](CC(N)=O)C(=O)N[C@H](C(=O)N[C@@H](Cc1ccccc1)C(=O)N[C@H](C(=O)N[C@@H](Cc1ccccc1)C(=O)NCC(=O)N[C@@H](Cc1ccc(O)cc1)C(=O)N[C@@H](Cc1ccccc1)C(=O)N[C@@H](CCC(=O)O)C(=O)N[C@@H](CCCNC(=N)N)C(=O)N[C@@H](CC(C)C)C(=O)N[C@@H](CCCNC(=N)N)C(=O)N[C@@H](C)C(=O)N[C@@H](CCCCN)C(=O)N[C@@H](CC(C)C)C(N)=O)C(C)C)C(C)C` [JBT0297] (Ac-FQSKNNVFVFGYFERLRAKL-NH2), the EC50 in series [1] stood at 600 nM.

Turning to `CC(=O)N[C@@H](Cc1ccccc1)C(=O)N[C@@H](CCC(N)=O)C(=O)N[C@@H](CO)C(=O)N[C@@H](CCCCN)C(=O)NCC(=O)N[C@@H](CC(N)=O)C(=O)N[C@H](C(=O)N[C@@H](Cc1ccccc1)C(=O)N[C@H](C(=O)N[C@@H](CC(=O)O)C(=O)NCC(=O)N[C@@H](Cc1ccc(O)cc1)C(=O)N[C@@H](Cc1ccccc1)C(=O)N[C@@H](CCC(=O)O)C(=O)N[C@@H](CCCNC(=N)N)C(=O)N[C@@H](CC(C)C)C(=O)NC(C)(C)C(=O)N[C@@H](C)C(=O)N[C@@H](CCCCN)C(=O)N[C@@H](CC(C)C)C(N)=O)C(C)C)C(C)C` [JBT0740], in series [2], the “concentration of peptide in mouse plasma over time” value is reported as “rapidly cleared from the plasma”. On to `CSCC[C@@H]1NC(=O)CNC(=O)[C@@H](NC(=O)[C@H](Cc2ccccc2)NC(=O)[C@H](Cc2c[nH]c3ccccc23)NC(=O)[C@H](CCCCN)NC(=O)[C@H](Cc2ccc(O)cc2)NC(=O)[C@H](CCCNC(=N)N)NC(=O)[C@H](CO)NC(=O)[C@H](C)NC(=O)CNC(=O)[C@H](CO)NC(C)=O)CSSC[C@@H](C(=O)N[C@H](C(=O)N[C@@H](Cc2c[nH]c3ccccc23)C(=O)N[C@H](C(=O)N[C@@H](CCCCN)C(=O)N[C@@H](Cc2ccccc2)C(=O)N[C@@H](CCCNC(=N)N)C(=O)N[C@@H](Cc2ccc(O)cc2)C(=O)N[C@@H](CC(=O)O)C(=O)N[C@H](C(=O)N[C@@H](CO)C(N)=O)[C@@H](C)O)C(C)C)C(C)C)NC(=O)[C@H](CO)NC(=O)[C@H](CCSC)NC(=O)[C@H]([C@@H](C)O)NC(=O)CNC(=O)[C@H](CCCCN)NC(=O)[C@H](CCSC)NC(=O)[C@H](CC(=O)O)NC(=O)[C@H](CCCNC(=N)N)NC1=O` [JBT0120], for which the “peak thrombin and peak time” value in series [3] was “improved peak thrombin and peak time, dose dependently”.
